Experimental data from patent US20050038000A1, “Methods and compositions for the treatment of amyloid-and epileptogenesis-associated diseases” (priority 2003, published 2005).

System: spontaneous recurrent seizures
Assay: "spontaneous recurrent seizures" (SRS) model of epilepsy
Format: in vivo
Settings: rat, 20 mg/kg/day i.v. for 10 day
Experimental: The “spontaneous recurrent seizures” (SRS) model of epilepsy is used to evaluate candidate compounds in a model for Phase 1 epileptogenesis (see, e.g., Mello, E. et al., Epilepsia (1993) 34:985; Cavalheiro, J. et al., Epilepsia (1991) 32:778). In the SRS model, an adult male Sprague-Dawley rat (c. 260 g) is given kainic acid by injection ([…].). Within 25 minutes, the animal enters status epilepticus, which typically lasts for 15-20 hours (although about 10% of animals die at this stage). The rat is allowed to spontaneously recover and is given food and water ad lib. and maintained on a 12 hour light/dusk cycle. Beginning on about day 13-15, the rats develop spontaneous recurrent seizures, which occur at the rate of about 4-5 per week. The rats are videotaped 8 hours per day, and the videotapes are reviewed for behavioral seizures (including head nodding, forelimb clonus, and rearing), which are counted. The animals are watched for a few weeks to a few months (2 weeks to three months), permitting evaluation of a sufficient number of seizures. An experimental compound for evaluation can be administered at either of two times: Time 1, on Day 1, after the cessation of status epilepticus but before the onset of SRS; or Time 2, on Day 30, when the rats have been experiencing SRS for about two weeks. […]

For O=C1NC(=O)C(c2ccccc2)(c2ccccc2)N1 [phenytoin], the “preventing the onset of seizures” value (administered at Time 1 (Day 1, before onset of SRS)) was “ineffective” and the “effective at decreasing seizure frequency by 50% or more” value (administered at Time 2 (Day 30, established SRS)) was 75%.
